{"source": "a melting point compilation (Tetko et al.; mined from patent text by program, amines drawn as free bases though some values may be those of a salt)", "data": [{"units": {"melting point": "°C"}, "values": [{"compound": "CC1(c2cc(N3C(=O)C4=C(CCCC4)C3=O)c(F)cc2Cl)OCCO1", "melting point": 147}, {"compound": "NC1=C([N+](=O)[O-])C(=O)NC1=Cc1ccccc1", "melting point": "> 260"}, {"compound": "CCOC(=O)C=CC=Cc1ccc(-n2ccnc2)cc1", "melting point": "126 to 127"}, {"compound": "CN(OCC(=O)O)C(=S)NC(c1ccccc1)c1ccccc1", "melting point": "160 to 162"}, {"compound": "CC(C)Oc1ccc(-c2nc(O)c(C(=O)O)s2)cc1", "melting point": "126 to 127"}, {"compound": "CC(C)NC(=O)CCCCCCI", "melting point": "46 to 51"}, {"compound": "O=CN(O)C(CCO)CS(=O)(=O)c1ccc(-c2ccc(Cl)cc2)cc1", "note": "(stereo unspecified)", "melting point": "158 to 159"}, {"compound": "NCc1ccc(N2CCC2)cc1", "melting point": "58 to 60"}, {"compound": "CC(C)(O)c1nc(-c2ccc(-c3cnc4[nH]c(=O)n(CC5CCOCC5)c4n3)cc2)n[nH]1", "melting point": "249 to 253"}, {"compound": "Cc1ccc(C(C#N)=C2CCCCC2)cc1", "melting point": "50.5 to 51.3"}, {"compound": "Cc1ccc(C=CC(=O)NN2CC(=O)NC2=O)cc1Cl", "melting point": "271 to 273"}, {"compound": "COc1cc(Br)c(O)c(C=O)c1", "melting point": "107 to 110"}, {"compound": "Cc1cccc(Cl)c1NC(=S)Nc1c(C)nn(C)c1C", "melting point": "201 to 202"}, {"compound": "CC1(C)C(=O)Nc2cc3c(cc21)OC(O)N3", "note": "(stereo unspecified)", "melting point": "297 to 299"}, {"compound": "Cn1ncc2c(c1=O)OCCNC2Cc1ccccc1", "note": "(stereo unspecified)", "melting point": "113 to 115"}, {"compound": "CCOC(=O)c1ccc(-c2cnc3c(c2)N(Cc2ccccc2)C(=O)CN3)cc1", "melting point": 178}, {"compound": "CC(C)(C)OC(=O)N1Cc2ccc(COc3cccc4c3CN(C3CCC(=O)NC3=O)C4=O)cc2C1", "note": "(stereo unspecified)", "melting point": "178 to 180"}, {"compound": "N#Cc1ccc(-c2ccc(-c3ccc(C#N)o3)cc2)cc1", "melting point": "216 to 218"}, {"compound": "CC(C)C[C@@H](C=O)NC(=O)[C@H](Cc1c[nH]cn1)NC(=O)[C@H](Cc1ccc2ccccc2c1)NC(=O)OCc1ccccc1", "melting point": "110 to 112"}, {"compound": "Cc1ccc(Cl)c(Nc2ccccc2-c2nnc(N)s2)c1Cl", "melting point": "219 to 226"}, {"compound": "Cc1c[nH]c(Cc2ccccc2[N+](=O)[O-])n1", "melting point": "125 to 128"}, {"compound": "CSc1ccc(NC(=O)C(C#N)C(=O)c2cccn2C)cc1", "note": "(stereo unspecified)", "melting point": "167 to 168"}, {"compound": "Nc1nc2[nH]c(CCCCC#Cc3ccc(C(=O)N[C@@H](CCC(=O)O)C(=O)O)s3)cc2c(=O)[nH]1", "melting point": "197 to 198"}, {"compound": "CCOC(=O)C(C#N)=CNNCC(=Cc1ccccc1)c1ccccc1", "melting point": "129 to 133"}, {"compound": "CCN(c1nc(C)cc(C)n1)c1ccc(C(C)C)cc1S(C)(=O)=O", "melting point": "174 to 175"}, {"compound": "O=C(O)Cc1ccc2c(c1)CCC(c1ccccc1F)N2", "note": "(stereo unspecified)", "melting point": "117 to 118"}, {"compound": "COCCCn1c(C=O)cc2c3c(c(-c4ccccc4Cl)cc21)C(=O)NC3=O", "melting point": "155 to 156"}, {"compound": "COCC(=O)Nc1nc2c(C)cccc2s1", "melting point": "110 to 111"}, {"compound": "Cc1cc(SCCc2ccc(-c3ccc(C(F)(F)F)cc3)cc2)ccc1OCC(=O)O", "melting point": "132 to 134"}, {"compound": "Cc1cnc(C#N)c(C)c1[N+](=O)[O-]", "melting point": "66 to 71"}, {"compound": "COc1nc(OC)c(C(C)C)c(C(=O)c2cc(Cl)cc(Cl)c2)n1", "melting point": "120 to 121"}, {"compound": "Cc1c(-c2ccncc2)oc2c1C(=O)CCC2(C)C", "melting point": "86 to 88"}, {"compound": "CC(C)(C)c1cc2c(s1)Nc1ccccc1N=C2N1CCN[C@@H](CCc2ccccc2)C1", "melting point": "93 to 96"}, {"compound": "Cc1cc(C)n(C(=O)CNS(=O)(=O)c2ccc(Cl)cc2)n1", "melting point": "135 to 136"}, {"compound": "CC(C)(C)NC(=O)[C@@H]1CCCN1C(=O)[C@@H](O)[C@H](Cc1ccccc1)NC(=O)[C@H](CC(N)=O)NC(=O)COc1cccc(N)c1", "melting point": "108 to 114"}, {"compound": "Cc1c(-c2ccccc2)c(N2CC[C@H](N(C)C)C2)c2oc(C(C)(C)F)nc2c1C#N", "melting point": "130 to 132"}, {"compound": "CC1(Cn2nc(-c3ccc(Br)cc3)oc2=O)Cn2cc([N+](=O)[O-])nc2O1", "note": "(stereo unspecified)", "melting point": "231 to 233"}, {"compound": "CN1CC(C(=O)NCc2cccnc2)CC2c3cccc4c3c(cn4C)CC21", "note": "(stereo unspecified)", "melting point": "185 to 187"}, {"compound": "CCNS(=O)(=O)/C=C/C1=C(C)NC(C)=C(C(=O)OC(C)C)C1c1cccc([N+](=O)[O-])c1", "note": "(stereo unspecified)", "melting point": "187 to 189"}, {"compound": "CCC(C)(CC)c1nnc(NC(=O)c2c(OC)cccc2OC)s1", "melting point": "208 to 210"}, {"compound": "N#Cc1ccc[nH]c1=S", "melting point": "243 to 246"}]}]}
